Experiments:
Format in all cases: cell-based
[1] = system: HCC-78 cells; assay: WST-1 assay, cell growth inhibitory effect on lung carcinoma cell line (HCC-78); conditions: for inhibition of growth of HCC-78 cells (in words): 1 μM, 24, 48 and 72 hours, Student's t-test, p<0.05; for growth rate of HCC-78 cells (control group = 100%): 1 μM
Description: Specifically, HCC-78 lung cancer cells deposited under an accession number of KCTC13642BP on Sep. […] At this time, DMSO (dimethyl sulfoxide) was added to a control group in an amount to be 0.01% of the total medium, 1 μM doxorubicin was added to a positive control group, and then these control group and positive control group were cultured for 24, 48, and 72 hours, respectively. In addition, the experiment was conducted using an A549 cell line instead of the HCC cell line as a negative control group. The A549 cell line is a kRAS mutant cell line and is also a cell line which is not involved in the overexpression of ALK and ROS-1.
When each of the culture times passed after drug treatment, the WST-1 reagent was added to each medium in an amount to be 10% of the medium, the cells were cultured for 1 hour, and then the absorbance of cells was measured at 470 nm by using an ELISA instrument.

[2] = system: HCC-78 cell line; assay: Change in metabolites in HCC-78 cell line after ALK/ROS-1 kinase inhibitor treatment, UHPLC-MS; conditions: HCC-78, 1 μM, 24 hours, n=5
Description: HCC-78 lung cancer cells were cultured in a 5% carbon dioxide cell incubator at a temperature of 37° C. using a RPMI medium containing 10% fetal bovine serum and 1% antibiotic. […] At this time, as a control group, DMSO (dimethyl sulfoxide) was added to the cells in an amount to be 0.01% of the total medium, and the cells were cultured for 24 hours. Each cell was cultured in 5 cell dishes for each group so that the total number of experiments for each group was 5 (n=5).
After the culture time of 24 hours had elapsed, the medium was removed, and the cells were washed two times with PBS (phosphate buffered saline). The cells were then acquired from the culture dish using a cell scraper, put in a tube, and stored at −80° C.
(§1) Thereafter, a process in which the mixed solution was frozen using liquid nitrogen, dissolved in water at room temperature, and then sonicated for 30 seconds was repeated three times to destroy the cells. Thereafter, the resultant mixed solution was subjected to centrifugation at 14000 rpm for 10 minutes, and only the supernatant was separated from this. At this time, DNA quantitation was conducted in order to correct the cell volume of the intracellular fluid extract acquired according to the series of procedures. DNA quantitation was conducted by mixing the extract with water at a ratio of 1:3, putting 5 μL of the mixture in a cuvette, and measuring the quantity at 260 nm by using a spectrophotometer Nano-MD of SHINKO CO., LTD.
(§2) Specifically, 10 μL of the acquired sample was injected into the ultra-high-performance liquid chromatography system-mass spectrometer, and the temperature of the injector was maintained at 4° C. […]
(§3) Specifically, Excel raw data attained by conducting calibration and peak alignment using the compound discovery software of Thermo Fisher Scientific Inc. was extracted from the chromatogram. […] The extracted file was first divided by the internal standard substance and corrected using DNA quantitation of cells, and statistical processing was conducted using SIMCA software. […]

[3] = system: MCF-7 cell line; assay: Change in metabolites in MCF-7 cell line after crizotinib treatment, UHPLC-MS; conditions: MCF-7, 1 μM, 12 hours, n=5
Description: MCF-7 breast cancer cells were cultured in a 5% carbon dioxide cell incubator at a temperature of 37° C. using a DMEM medium containing 10% fetal bovine serum and 1% antibiotic. […] At this time, as a control group, DMSO was added to the cells in an amount to be 0.01% of the total medium, and the cells were cultured for 12 hours. Each cell was cultured in 5 cell dishes for each group so that the total number of experiments for each group was 5 (n=5).
After the culture time of 12 hours had elapsed, the medium was removed, and the cells were washed two times with PBS. The cells were then acquired from the culture dish using a cell scraper, put in a tube, and stored at −80° C.
as §1, §2, §3

[4] = system: MCF-7 breast cancer cells; assay: MTT assay, cell viability of breast cancer cell line (MCF-7); conditions: 1 μM, 72 hours
Description: Specifically, MCF-7 breast cancer cells deposited under an accession number of KCTC13643BP on Sep. […] At this time, DMSO (dimethyl sulfoxide) was added to a control group in an amount to be 0.01% of the total medium, 1 μM paclitaxel was added to a positive control group, and then these control group and positive control group were cultured for 72 hours.
When each of the culture times passed after drug treatment, the supernatant of each medium was removed, the MTT reagent was added to the fresh medium so as to be 0.5 mg/ml, the cells were cultured for 3 hours, then the supernatant was removed again, and then the medium was reconstituted with 100 μL of DMSO. Thereafter, the absorbance of cells was measured at 590 nm by using an ELISA instrument.

Compound: Cc1cc(Nc2ncc(Cl)c(Nc3ccccc3S(=O)(=O)C(C)C)n2)c(OC(C)C)cc1C1CCNCC1 [ceritinib]
- inhibition of growth of HCC-78 cells (in words) [1]: significantly inhibited, particularly time dependently inhibited the growth of HCC-78 cells
- growth rate of HCC-78 cells (control group = 100%) ([1]; 24 hours after treatment): 73.73%
- growth rate of HCC-78 cells (control group = 100%) ([1]; 48 hours after treatment): 37.17%
- growth rate of HCC-78 cells (control group = 100%) ([1]; 72 hours after treatment): 17.99%
- AMP increase as compared with control group [2]: 188.21%
- adenosine decrease as compared with control group [2]: 95.31%
- cAMP decrease as compared with control group [2]: 66.78%

Compound: C[C@@H](Oc1cc(-c2cnn(C3CCNCC3)c2)cnc1N)c1c(Cl)ccc(F)c1Cl [crizotinib]
- inhibition of growth of HCC-78 cells (in words) [1]: significantly inhibited, particularly time dependently inhibited the growth of HCC-78 cells
- AMP increase [3]: 82.91%
- adenosine decrease [3]: 32.07%
- cAMP decrease [3]: 28.6%

Compound: CC(C)(C)c1nc(-c2cccc(NS(=O)(=O)c3c(F)cccc3F)c2F)c(-c2ccnc(N)n2)s1 [dabrafenib]
- inhibition of cell growth of MCF-7 cell line (in words) ([4]; Student's t-test, p value <0.05): 5 kinds of kinase inhibitors except dabrafenib significantly inhibited

Compound: COc1cccc2c1C(=O)c1c(O)c3c(c(O)c1C2=O)C[C@@](O)(C(=O)CO)C[C@@H]3O[C@H]1C[C@H](N)[C@H](O)[C@H](C)O1 [doxorubicin]
- growth rate of HCC-78 cells (control group = 100%) ([1]; 24 hours after treatment): 57.65%

Compound: CC(=O)O[C@H]1C(=O)[C@@]2(C)[C@H]([C@H](OC(=O)c3ccccc3)[C@]3(O)C[C@H](OC(=O)[C@H](O)[C@@H](NC(=O)c4ccccc4)c4ccccc4)C(C)=C1C3(C)C)[C@]1(OC(C)=O)CO[C@@H]1C[C@@H]2O [paclitaxel]
- cell growth rate of MCF-7 as compared with control group [4]: 46.86%

— patent US11506654B2, “Method, composition and kit for screening ALK or ROS-1 kinase inhibitor” (KOREA INSTITUTE OF SCIENCE AND TECHNOLOGY, priority 2018, dated 2022)
